Measurements taken from ChEMBL document CHEMBL3885881, “DrugMatrix”.

Species on record: Rattus norvegicus
Experiment: DrugMatrix - Regimen: Daily Repeat
Type: toxicity, organism-based, Sprague-Dawley
Set-up: regimen Daily Repeat, gender Male, age 6-8 weeks
Details: in vivo, po, route oral GAVAGE, […]; for ABSOLUTE BASOPHIL / ABSOLUTE EOSINOPHIL / ABSOLUTE LYMPHOCYTE / ABSOLUTE MONOCYTE / ABSOLUTE SEGMENTED NEUTROPHIL / BASOPHIL / EOSINOPHIL / ERYTHROCYTE COUNT / HEMATOCRIT / HEMOGLOBIN / LEUKOCYTE COUNT / LYMPHOCYTE / MEAN CORPUSCULAR HEMOGLOBIN / MEAN CORPUSCULAR HEMOGLOBIN CONCENTRATION / MEAN CORPUSCULAR VOLUME / MONOCYTE / NEUTROPHIL / NUCLEATED RED BLOOD CELLS / PLATELET COUNT: tissue Blood; for ALANINE AMINOTRANSFERASE / ALBUMIN / ALKALINE PHOSPHATASE / ASPARTATE AMINOTRANSFERASE / BLOOD UREA NITROGEN / CARBON DIOXIDE / CHLORIDE / CHOLESTEROL / CREATINE PHOSPHOKINASE / CREATININE / GLUCOSE / LACTATE DEHYDROGENASE / LIPASE / PHOSPHORUS / POTASSIUM / SODIUM / TOTAL BILIRUBIN / TOTAL PROTEIN / URIC ACID: tissue Plasma
[1] = 100 mg/kg, 120 h, dose level Low, time 5 day
[2] = 700 mg/kg, 72 h, dose level High, time 3 day
[3] = 700 mg/kg, 120 h, dose level High, time 5 day

`CC(=O)Nc1cccc(O)c1` [METACETAMOL] was tested. Which “ABSOLUTE BASOPHIL” value [1] did it give?
Its value is 0 CELLS/uL.

What about the “ABSOLUTE EOSINOPHIL” value [1] of the same compound?
Its value is 0 CELLS/uL.

What about the “ABSOLUTE LYMPHOCYTE” value [1] of the same compound?
Its value is 14298.33 CELLS/uL.

What about the “ABSOLUTE MONOCYTE” value [1] of the same compound?
The value was 106.33 CELLS/uL.

And the “ABSOLUTE SEGMENTED NEUTROPHIL” value [1]?
The value was 1828.67 CELLS/uL.

And the BASOPHIL [1]?
The BASOPHIL was 0%.

And the EOSINOPHIL [1]?
Its EOSINOPHIL is 0%.

What about the “ERYTHROCYTE COUNT” value [1] of the same compound?
The value was 5.63 x10E6/uL.

What about the HEMATOCRIT [1] of the same compound?
Its HEMATOCRIT is 35%.

What about the HEMOGLOBIN [1] of the same compound?
The HEMOGLOBIN was 13.73 G/DL.

What about the “LEUKOCYTE COUNT” value [1] of the same compound?
The value was 16.23 x10E3/uL.

And the LYMPHOCYTE [1]?
Its LYMPHOCYTE is 88%.

And the “MEAN CORPUSCULAR HEMOGLOBIN” value [1]?
The value was 24.43 pg.

And the “MEAN CORPUSCULAR HEMOGLOBIN CONCENTRATION” value [1]?
The value was 39.23 G/DL.

What about the “MEAN CORPUSCULAR VOLUME” value [1] of the same compound?
The value was 62.23 fL.

What about the MONOCYTE [1] of the same compound?
The MONOCYTE was 0.67%.

And the NEUTROPHIL [1]?
Its NEUTROPHIL is 11.33%.

And the “NUCLEATED RED BLOOD CELLS” value [1]?
The value was 0.33 /100WBC.

What about the “PLATELET COUNT” value [1] of the same compound?
Its value is 1235.67 x10E3/uL.

What about the “ALANINE AMINOTRANSFERASE” value [1] of the same compound?
Its value is 58.33 u/L.

What about the ALBUMIN [1] of the same compound?
Its ALBUMIN is 4.03 G/DL.

What about the “ALKALINE PHOSPHATASE” value [1] of the same compound?
Its value is 434.67 u/L.

What about the “ASPARTATE AMINOTRANSFERASE” value [1] of the same compound?
Its value is 95 u/L.

And the “BLOOD UREA NITROGEN” value [1]?
Its value is 14.67 mg/dL.

What about the “CARBON DIOXIDE” value [1] of the same compound?
The value was 26.67 mmol/L.

And the CHLORIDE [1]?
The CHLORIDE was 101 MEQ/L.

What about the CHOLESTEROL [1] of the same compound?
Its CHOLESTEROL is 68.33 mg/dL.

What about the “CREATINE PHOSPHOKINASE” value [1] of the same compound?
The value was 455.33 u/L.

And the CREATININE [1]?
The CREATININE was 0.2 mg/dL.

What about the GLUCOSE [1] of the same compound?
Its GLUCOSE is 151 mg/dL.

What about the “LACTATE DEHYDROGENASE” value [1] of the same compound?
Its value is 549 u/L.

What about the LIPASE [1] of the same compound?
Its LIPASE is 10.33 u/L.

And the PHOSPHORUS [1]?
The PHOSPHORUS was 11.03 mg/dL.

What about the POTASSIUM [1] of the same compound?
The POTASSIUM was 6.46 MEQ/L.

What about the SODIUM [1] of the same compound?
The SODIUM was 140.67 MEQ/L.

What about the “TOTAL BILIRUBIN” value [1] of the same compound?
The value was 0.17 mg/dL.

What about the “TOTAL PROTEIN” value [1] of the same compound?
The value was 5.73 G/DL.

And the “URIC ACID” value [1]?
Its value is 1.6 mg/dL.

And the “ABSOLUTE BASOPHIL” value [2]?
The value was 0 CELLS/uL.

And the “ABSOLUTE EOSINOPHIL” value [2]?
The value was 0 CELLS/uL.

What about the “ABSOLUTE LYMPHOCYTE” value [2] of the same compound?
The value was 14734.67 CELLS/uL.

And the “ABSOLUTE MONOCYTE” value [2]?
The value was 227.67 CELLS/uL.

What about the “ABSOLUTE SEGMENTED NEUTROPHIL” value [2] of the same compound?
The value was 1637.67 CELLS/uL.

What about the BASOPHIL [2] of the same compound?
The BASOPHIL was 0%.

And the EOSINOPHIL [2]?
Its EOSINOPHIL is 0%.

And the “ERYTHROCYTE COUNT” value [2]?
Its value is 5.31 x10E6/uL.

What about the HEMATOCRIT [2] of the same compound?
The HEMATOCRIT was 34.37%.

What about the HEMOGLOBIN [2] of the same compound?
Its HEMOGLOBIN is 13.6 G/DL.

What about the “LEUKOCYTE COUNT” value [2] of the same compound?
Its value is 16.6 x10E3/uL.

And the LYMPHOCYTE [2]?
The LYMPHOCYTE was 89%.

What about the “MEAN CORPUSCULAR HEMOGLOBIN” value [2] of the same compound?
The value was 25.6 pg.

And the “MEAN CORPUSCULAR HEMOGLOBIN CONCENTRATION” value [2]?
The value was 39.6 G/DL.

What about the “MEAN CORPUSCULAR VOLUME” value [2] of the same compound?
Its value is 64.7 fL.

And the MONOCYTE [2]?
Its MONOCYTE is 1.33%.

What about the NEUTROPHIL [2] of the same compound?
Its NEUTROPHIL is 9.67%.

What about the “NUCLEATED RED BLOOD CELLS” value [2] of the same compound?
Its value is 0 /100WBC.

And the “PLATELET COUNT” value [2]?
Its value is 1189.67 x10E3/uL.

And the “ALANINE AMINOTRANSFERASE” value [2]?
The value was 61.67 u/L.

What about the ALBUMIN [2] of the same compound?
Its ALBUMIN is 4.37 G/DL.

And the “ALKALINE PHOSPHATASE” value [2]?
The value was 420.33 u/L.

What about the “ASPARTATE AMINOTRANSFERASE” value [2] of the same compound?
The value was 80.33 u/L.

And the “BLOOD UREA NITROGEN” value [2]?
The value was 15.67 mg/dL.

What about the “CARBON DIOXIDE” value [2] of the same compound?
Its value is 32.33 mmol/L.

What about the CHLORIDE [2] of the same compound?
Its CHLORIDE is 98.67 MEQ/L.

What about the CHOLESTEROL [2] of the same compound?
Its CHOLESTEROL is 94 mg/dL.

And the “CREATINE PHOSPHOKINASE” value [2]?
The value was 171 u/L.

And the CREATININE [2]?
Its CREATININE is 0.17 mg/dL.

And the GLUCOSE [2]?
The GLUCOSE was 144 mg/dL.

And the “LACTATE DEHYDROGENASE” value [2]?
Its value is 137 u/L.

And the LIPASE [2]?
Its LIPASE is 10 u/L.

And the PHOSPHORUS [2]?
Its PHOSPHORUS is 10.6 mg/dL.

What about the POTASSIUM [2] of the same compound?
The POTASSIUM was 6.44 MEQ/L.

And the SODIUM [2]?
The SODIUM was 143.63 MEQ/L.

What about the “TOTAL BILIRUBIN” value [2] of the same compound?
The value was 0.27 mg/dL.

What about the “TOTAL PROTEIN” value [2] of the same compound?
The value was 6 G/DL.

And the “URIC ACID” value [2]?
The value was 1.33 mg/dL.

And the “ABSOLUTE BASOPHIL” value [3]?
The value was 0 CELLS/uL.

What about the “ABSOLUTE EOSINOPHIL” value [3] of the same compound?
The value was 0 CELLS/uL.

And the “ABSOLUTE LYMPHOCYTE” value [3]?
The value was 13480 CELLS/uL.

And the “ABSOLUTE MONOCYTE” value [3]?
Its value is 247.33 CELLS/uL.

What about the “ABSOLUTE SEGMENTED NEUTROPHIL” value [3] of the same compound?
Its value is 2206 CELLS/uL.

What about the BASOPHIL [3] of the same compound?
The BASOPHIL was 0%.

And the EOSINOPHIL [3]?
Its EOSINOPHIL is 0%.

And the “ERYTHROCYTE COUNT” value [3]?
Its value is 5.72 x10E6/uL.

What about the HEMATOCRIT [3] of the same compound?
The HEMATOCRIT was 35.17%.

What about the HEMOGLOBIN [3] of the same compound?
The HEMOGLOBIN was 13.93 G/DL.

And the “LEUKOCYTE COUNT” value [3]?
Its value is 15.93 x10E3/uL.

And the LYMPHOCYTE [3]?
Its LYMPHOCYTE is 84.67%.

And the “MEAN CORPUSCULAR HEMOGLOBIN” value [3]?
Its value is 24.37 pg.

And the “MEAN CORPUSCULAR HEMOGLOBIN CONCENTRATION” value [3]?
Its value is 39.6 G/DL.

What about the “MEAN CORPUSCULAR VOLUME” value [3] of the same compound?
The value was 61.53 fL.

What about the MONOCYTE [3] of the same compound?
The MONOCYTE was 1.67%.

What about the NEUTROPHIL [3] of the same compound?
Its NEUTROPHIL is 13.67%.

And the “NUCLEATED RED BLOOD CELLS” value [3]?
The value was 0.67 /100WBC.

What about the “PLATELET COUNT” value [3] of the same compound?
The value was 1165.67 x10E3/uL.

And the “ALANINE AMINOTRANSFERASE” value [3]?
Its value is 57 u/L.

And the ALBUMIN [3]?
Its ALBUMIN is 4.27 G/DL.

What about the “ALKALINE PHOSPHATASE” value [3] of the same compound?
Its value is 454.33 u/L.

What about the “ASPARTATE AMINOTRANSFERASE” value [3] of the same compound?
Its value is 78.67 u/L.

What about the “BLOOD UREA NITROGEN” value [3] of the same compound?
Its value is 15.67 mg/dL.

And the “CARBON DIOXIDE” value [3]?
The value was 27.33 mmol/L.

And the CHLORIDE [3]?
Its CHLORIDE is 105 MEQ/L.

And the CHOLESTEROL [3]?
Its CHOLESTEROL is 78.67 mg/dL.

What about the “CREATINE PHOSPHOKINASE” value [3] of the same compound?
The value was 239.33 u/L.

And the CREATININE [3]?
Its CREATININE is 0.25 mg/dL.

What about the GLUCOSE [3] of the same compound?
The GLUCOSE was 169.67 mg/dL.

What about the “LACTATE DEHYDROGENASE” value [3] of the same compound?
The value was 132 u/L.

What about the LIPASE [3] of the same compound?
The LIPASE was 10.33 u/L.

And the PHOSPHORUS [3]?
The PHOSPHORUS was 10.87 mg/dL.

And the POTASSIUM [3]?
The POTASSIUM was 7.12 MEQ/L.

What about the SODIUM [3] of the same compound?
Its SODIUM is 151.07 MEQ/L.

And the “TOTAL BILIRUBIN” value [3]?
The value was 0.2 mg/dL.

What about the “TOTAL PROTEIN” value [3] of the same compound?
The value was 5.97 G/DL.

And the “URIC ACID” value [3]?
The value was 2 mg/dL.
